Laboratory results: US7041785B1, “B1-bradykinin receptor antagonists and use thereof” (Université de Sherbrooke, priority 1996, dated 2006)
Non-standard residues stand in square brackets, D forms with d. Residues, ends and D or L forms follow the SMILES beside them. Oic = O=C(O)[C@@H]1C[C@@H]2CCCC[C@@H]2N1; Hyp = O=C(O)[C@@H]1C[C@@H](O)CN1; dTic = O=C(O)[C@H]1Cc2ccccc2CN1; 2Thi = N[C@@H](Cc1cccs1)C(=O)O

Assays:
[1] = target: T1, human B2 receptor (Homo sapiens, UniProt P30411); test: Human umbilical vein bioassay in presence of Lys(Leu8)desArg9BK, B2 receptor; type: cell-based; conditions: vs BK, Lys(Leu8)desArg9BK 1 μmol/L present
T1 construct: Helical strips of HUV were prepared according to Gobeil et al; from tissue; host or cells: human umbilical vein helical strips
T1 sequence (P30411 1-391): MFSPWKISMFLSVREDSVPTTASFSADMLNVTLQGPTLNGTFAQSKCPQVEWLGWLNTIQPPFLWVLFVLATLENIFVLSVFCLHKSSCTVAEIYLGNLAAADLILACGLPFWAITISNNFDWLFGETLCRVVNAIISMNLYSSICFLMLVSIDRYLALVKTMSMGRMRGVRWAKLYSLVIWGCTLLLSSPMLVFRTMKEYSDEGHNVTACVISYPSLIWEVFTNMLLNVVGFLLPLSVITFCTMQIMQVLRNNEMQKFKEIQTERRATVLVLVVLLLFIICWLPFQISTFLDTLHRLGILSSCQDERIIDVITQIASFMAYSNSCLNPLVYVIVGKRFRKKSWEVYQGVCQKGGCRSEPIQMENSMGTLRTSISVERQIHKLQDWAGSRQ
Description: Tissues were taken from New Zealand white rabbits (1.5–2.5 kg) and Dunken Hartley guinea pigs (250–350 g) of either sex, killed by stunning and exsanguination. Umbilical cords were taken from healthy women 22–40 years old after spontaneous delivery at term. The rabbit jugular vein (RbJV), the guinea pig ileum (GPI), two preparations containing B2 receptors, the rabbit aorta (RbA) (B1 receptor) and the human umbilical vein (HUV), a mixed preparation containing both B1 and B2 receptors^10, were used. Helical strips of RbJV treated with 1 μmol/L of captopril to avoid peptide degradation by the angiotensin-converting enzyme (ACE), alias kininase II were prepared according to Gaudreau et al.^11 Helical strips of RbA devoid of endothelium were prepared according to Furchgott and Bhadrakom^12. Longitudinal segments of GPI were prepared with the procedure described by Rang^13. Helical strips of HUV were prepared according to Gobeil et al.^10. The tissues were suspended in 10-ml organ baths containing warm (37EC), oxygenated (95% O2–5% CO2) Krebs solution of the following composition in mmol/L; NaCl: 118.1; KCl: 4.7; CaCl26H2O: 2.5; KH2PO4: 1.2; MgSO47H2O: 1.18; NaHCO3: 25.0 and D-Glucose: 5.5. The RbA and the HUV were stretched with an initial tension of 2 g, whereas the RbJV and the GPI were loaded with 0.5 g. Changes of tension produced by the various agents were measured with Grass isometric transducers (model FT 03C, Grass Instrument Co., Quincy, Mass.). […] Before testing the drugs, the tissues were allowed to equilibrate for 60–120 min during which time the tissues were repeatedly washed and the tension readjusted every 15 min.
At the beginning of each experiment, a submaximal dose of bradykinin (BK) (9 nmol/L), was applied repeatedly on the RbJV, the GPI or the HUV to ensure that tissues responded with stable contractions. […] A similar protocol was used for the HUV.
Repeated applications of a singl and double concentration of BK (on RbJV, GPI and HUV) and of desArg^9BK (RbA and HUV) were made in the absence and in presence of the various peptides to evaluate their apparent affinities as antagonists, in terms of pA2 (-log10 of the molar concentration of antagonist that reduces the effect of a double concentration of agonist to that of a single one)^14. The antagonists were applied 10 min before measuring the myotropic effects of either BK (the B2 receptor agonist) or desArg^9BK (the B1 receptor agonist). […] All kinin antagonists were initially applied to tissues at concentration of 10 μg/mL to measure their potential agonistic activities (α^E) in comparison with BK (in the B2 receptor preparations) or desArg^9BK (in the B1 receptor preparations).

[2] = target: T2, human B1 receptor (Homo sapiens, UniProt P46663); test: cell-based; conditions: HOE140 400 nmol/L present; for Kb: Human umbilical vein B1 receptor pA2, vs desArg9BK
T2 sequence (P46663 1-353): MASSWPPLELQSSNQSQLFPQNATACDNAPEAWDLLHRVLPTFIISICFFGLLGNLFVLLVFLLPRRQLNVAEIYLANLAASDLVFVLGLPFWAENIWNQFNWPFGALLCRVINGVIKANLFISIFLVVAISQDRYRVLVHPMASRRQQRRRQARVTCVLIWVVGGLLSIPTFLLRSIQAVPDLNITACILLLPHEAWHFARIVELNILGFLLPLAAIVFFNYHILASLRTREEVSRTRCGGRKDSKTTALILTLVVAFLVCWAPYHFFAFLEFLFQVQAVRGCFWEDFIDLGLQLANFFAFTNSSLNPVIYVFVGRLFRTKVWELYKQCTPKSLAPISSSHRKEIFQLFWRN
Outline: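 Isolated rabbit jugular vein (captopril 1 μmol/L), guinea pig ileum, endothelium-free rabbit aorta and human umbilical vein, in Krebs at 37 °C, with isometric tension recorded. Agonism was tested at 10 μg/mL.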

[3] = target: T3, B2 receptor (Oryctolagus cuniculus, UniProt Q28642); conditions: vs BK; captopril 1 μmol/L; Inactive = no detectable antagonistic effect at ≦ 10 μg/ml
T3 sequence (Q28642 1-367): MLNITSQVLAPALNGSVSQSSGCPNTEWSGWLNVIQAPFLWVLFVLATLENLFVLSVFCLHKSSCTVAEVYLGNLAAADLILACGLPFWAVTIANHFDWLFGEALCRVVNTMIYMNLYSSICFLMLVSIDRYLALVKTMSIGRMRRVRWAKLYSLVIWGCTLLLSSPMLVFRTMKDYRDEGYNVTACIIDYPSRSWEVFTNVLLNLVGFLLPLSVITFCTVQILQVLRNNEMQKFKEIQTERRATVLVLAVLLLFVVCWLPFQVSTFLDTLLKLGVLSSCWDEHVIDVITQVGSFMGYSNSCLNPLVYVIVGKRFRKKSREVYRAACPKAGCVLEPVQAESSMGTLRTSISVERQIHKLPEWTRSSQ

Row | SMILES | Human umbilical vein B2 receptor pA2 [1] | Kb [2] | Rb.J.V. pA2 [3] | Human umbilical vein B1 receptor pA2 ([2]; vs desArg9BK)
1 | CC(C)C[C@H](NC(=O)[C@H]1Cc2ccccc2CN1C(=O)[C@H](CO)NC(=O)[C@H](Cc1ccccc1)NC(=O)CNC(=O)[C@@H]1CCCN1C(=O)[C@@H]1CCCN1C(=O)[C@@H](N)CCCNC(=N)N)C(=O)O [Compound 8, (D-Tic^7, Leu^8)desArg^9BK] (H-RPPGFS[dTic]L-OH; N-terminus and C-terminus assumed) | Inactive | 2.75 µM | Inactive | –
2 | N=C(N)NCCC[C@@H](N)C(=O)N[C@@H](CCCNC(=N)N)C(=O)N1CCC[C@H]1C(=O)N1C[C@H](O)C[C@H]1C(=O)NCC(=O)N[C@@H](Cc1cccs1)C(=O)N[C@@H](CO)C(=O)N1Cc2ccccc2C[C@@H]1C(=O)N1[C@H](C(=O)O)C[C@@H]2CCCC[C@@H]21 [Compound 31, D-Arg(Hyp^3, Thi^5, D-Tic^7, Oic^8)desArg^9BK, reference compound] (H-[dR]RP[Hyp]G[2Thi]S[dTic][Oic]-OH; N-terminus and C-terminus assumed) | Inactive | 0.0513 µM | – | 7.29
